According to patent US9283199B2, “Halogenated aliphatic carboxylic acids, oligomers and/or polymers thereof and their use in devitalizing external and internal neoplasms” (Cimas Limited, priority 2009, dated 2016):
Read-outs that look alike come from different tables or passages of the source.

Experiments:
[1] = test system: benign, viral, pre-malignant, non-metastasizing malignant and mucosal tumor lesions; test: Clinical study of topical DPA / DPA oligomer treatment of skin pathologies, long term follow-up (Example 1); assay type: in vivo, human; settings: all tumor types, 2-8 years follow-up
Method: Patients suffering from benign tumors, viral warts or mucosal membraneus tumors were administered with the tetramer form of DPA. In some cases, DPA, as a monomer, was used. Patients suffering from premalignant or malignant tumors were administered with longer oligomers of DPA.
In most cases, the DPA monomer or oligomer was administered only once and without anesthesia or other special conditions. Only in cases of patients suffering from Recklinghausen disease (a multiple form of peripheral Neurofibromatosis), when the number of skin tumor lesions was more than 100, multiple treatment sessions were performed. […]
The safety of DPA oligomer treatment was assessed by evaluating the treated skin lesion appearance, local skin reaction, vital sign measurements, adverse events and concomitant medications taken by the patient. […]
At the 3-week, 6-week and 12-week post-treatment visit(s), a clinical assessment was performed to determine whether treated lesions were visible at the target site. Pigmented lesions, suspected of being malignant, were further evaluated microscopically by the excision of a biopsy sample with a 3 mm margin from the lesion, using the radioelectro technique, and histopathologically examining the sample for evidence of residual or recurrence of tumor. […]

Storage stability of DPA = assay type: physicochemical; settings: stored in sealed brown glass containers between −4° C. and +50° C.
[2] = cited from earlier work
[3] = in vivo; cited from earlier work
[4] = in vivo; cited from earlier work; remark: listed apart in the source

## CC(Cl)(Cl)C(=O)O [DPA, 2,2-Dichloropropanoic acid]
[1]; Total
  Very good result (++++) %: 82.1%
[1]
  satisfactory level of clinical results observed, % of the tumors: 99.1%
Storage stability of DPA
  chemoanalytical and biological (efficacy) stability: at least 5 years
[2]; DPA and all of its known breakdown products
  solubility in water: dissolve easily in water
[2]; at 25° C.
  solubility in water: 90 g/100 ml
[2]
  solubility in organic solvents and lipids: insoluble
[3]
  half-life in human blood: 36 to 72 h
[4]
  accumulation in animal tissues: does not build up in animal tissues
